Experiment [1] deals with T1, STING AQ (His-TVMV-S-hSTING(155-341)-G230A-R293Q) (Homo sapiens, UniProt Q86WV6, G230A/H232R/R293Q).
T1 construct: STING AQ: His-TVMV-S-hSTING(155-341)-G230A-R293Q
Briefly: STING HTRF binding assay (time resolved FRET competition), STING AQ. As to conditions: 20 nM His-tagged STING AQ cytoplasmic domain, 40 nM fluorescein-labeled cGAMP analog probe, one hour; read-out: HTRF Binding Assays IC50 AQ. The method, then: (§1) A time resolved FRET-based competition binding assay was used to assess test article binding to STING WT and STING AQ. His-tagged STING cytoplasmic domain (WT or AQ) at a concentration of 20 nM was incubated with 2.5 nM Tb-labeled anti-His antibody, test compound, and fluorescein-labeled cGAMP analog probe (BioLog cat. no. C195) at a concentration of 200 nM (STING WT) or 40 nM (STING AQ) in PBS containing 0.005% Tween-20 and 0.1% BSA for one hour. Fluorescence at 495 nm and 520 nm was measured using an EnVision microplate reader to quantify FRET between Tb-labeled anti-His antibody and fluorescein-labeled probe. Background was defined as the signal obtained in the absence of STING protein, and background subtracted FRET ratios were normalized to the maximum signal obtained in the absence of test compound. These values were converted to a percent inhibition. Percent inhibition was determined for test compounds at 11 concentrations. The IC50, defined as the concentration of competing test compound needed to reduce specific binding of the probe by 50%, was calculated using the 4 parameter logistic equation to fit the data
STING AQ: His-TVMV-S-hSTING(155-341)-G230A-R293Q • […] […] […] […] LRQEEKEEV (SEQ ID NO:2)
(TR-FRET usually uses a lanthanide donor and a delayed reading to cut background.)

The test system of experiment [2] is STING / NF-κB pathway in THP1-Dual cells. In words: STING THP1 Reporter Assay, NF-κB pathway (SEAP, QUANTI-Blue). The following applies: 10% human plasma, 100% activation = 100 μM cGAMP, SEAP readout, read-out: THP1 Reporter Assays EC50 NFkB. The format is cell-based. The source says: (§2) THP1-Dual™ cells were derived from the human THP-1 monocyte cell line by stable integration of two inducible reporter constructs. To this end, THP1-Dual™ cells allow the simultaneous study of the […], by monitoring the activity of SEAP, and the IRF pathway by assessing the activity of a secreted luciferase (Lucia). Both reporter proteins are readily measurable in the cell culture supernatant when using QUANTI-Blue™, a SEAP detection reagent, and QUANTI-Luc™, a luciferase detection reagent.
(§3) THP1-Dual™ cells induce the activation of NF-κB in response to STING agonists. They also trigger the IRF pathway upon stimulation with STING agonists, such as cGAMP. Here, the THP-1-Dual cells were used to assess STING binders for function on the cellular level.
(§4) Serial dilutions of compounds in DMSO were added to low volume 384 well plates at 100 nl/well using an ECHO acoustic dispenser (Labcyte, model 550) to achieve final starting concentration of 100 μM in cell suspension. THP-1 Dual™ STING reporter cells (Invivogen, Dual cells cat #THPD-nfis) were added to the plates with compounds at 15,000 cells in 10 μL per well in RPMI media (Gibco, cat #11875) containing 10% human plasma in a low volume 384-well black wall clear bottom tissue culture plate (Corning, cat #3542) for SEAP assay and low volume solid white plate (Corning, cat #3826) for luciferase assay. One column of the plate was reserved for treatment with cGAMP at 100 μM for 100% activation calculation and one column for no treatment (DMSO only) for baseline activation. Plates were then incubated in 37 OC incubator at 5% CO2 for 20 hours.
(§5) In the SEAP assay, […] 2× QuantiBlue (Invivogen, cat #Rep-qb2) is added to 384 well black plates seeded with THP1 cells and incubated at 37° C. for 2 hours. Plates were read on the Envision (Perkin Elmer) at 620 nm wavelength (OD620). In the luciferase assay, 5 μl of Quantiluc (Invivogen, Rep-qlc2) is added to white 384 well plates seeded with THP1 cells and read at 5 minutes on the Envision (Perkin Elmer) using a luminescence protocol (RLU). For both cell lines, 100% activation was determined by value (RLU) of THP-1 Dual STING cells stimulated with 100 μM cGAMP (Invivogen, cat #TLRL-NACGA23-5).
In general terms: Reporter assays use an easily measured gene product as a stand-in for the process of interest.

Experiment [3] deals with T2, STING WT (His-TVMV-S-hSTING(155-341)-H232R) (Homo sapiens, UniProt Q86WV6, H232R).
T2 construct: STING WT: His-TVMV-S-hSTING(155-341)-H232R
Briefly: STING HTRF binding assay (time resolved FRET competition), STING WT. The following applies: 20 nM His-tagged STING WT cytoplasmic domain, 200 nM fluorescein-labeled cGAMP analog probe, one hour; read-out: HTRF Binding Assays IC50 WT. The protocol: as §1
STING WT: His-TVMV-S-hSTING(155-341)-H232R • […] […] […] […] LRQEEKEEV (SEQ ID NO:1)

In experiment [4] the test system is STING / IRF pathway in THP1-Dual cells. In words: STING THP1 Reporter Assay, IRF pathway (secreted Lucia luciferase, QUANTI-Luc). The following applies: 10% human plasma, 100% activation = 100 μM cGAMP, luciferase readout, read-out: THP1 Reporter Assays EC50 IRF3. The class given is cell-based.
Excerpt: as §2, §3, §4, §5

Structures are written as SMILES. Like-named read-outs stand apart in the source and are kept apart here.

T2 sequence (Q86WV6 with tags, fused parts or gaps H232R): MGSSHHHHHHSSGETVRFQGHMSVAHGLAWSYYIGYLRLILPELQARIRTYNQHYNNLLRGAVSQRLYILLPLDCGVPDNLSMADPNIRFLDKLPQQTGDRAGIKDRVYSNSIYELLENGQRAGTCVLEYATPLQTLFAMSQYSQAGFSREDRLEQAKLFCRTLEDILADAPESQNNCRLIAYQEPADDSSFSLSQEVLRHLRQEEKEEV
T1 sequence (Q86WV6 with tags, fused parts or gaps G230A/H232R/R293Q): as the sequence (Q86WV6 with tags, fused parts or gaps H232R) above, with G99A, R162Q counted along it

Broadly, the IC50 is the concentration that inhibits the measured activity by half. Usually EC50 stands for the concentration at which the effect is half-maximal. With `Nc1ncnc2c1ncn2[C@@H]1O[C@@H]2COP(=O)(O)O[C@@H]3[C@H](O)[C@@H](COP(=O)(S)O[C@H]2[C@H]1F)O[C@H]3n1nnc2c([N+](=O)[O-])cccc21` (stereo partly drawn) [Example 19-1, (1R,6R,8R,9R,10R,15R,17R, 18R)-8-(6-amino-9H-purin-9-yl)-9-fluoro-3,12,18-trihydroxy-17-(4-nitro-1H-1,2,3-benzotriazol-1-yl)-12-sulfanylidene-2,4,7,11,13, 16-hexaoxa-3λ^5,12λ^5-diphos-phatricyclo[13.2.1.0^6,10]octa-decan-3-one], the results for the IC50 in experiment [1] and in experiment [3] were 650 nM and 4660 nM, respectively. The EC50 in experiment [2] (Homo sapiens, THP1-Dual, 20 h) was more than 100000 nM; in experiment [4] (Homo sapiens, THP1-Dual, 20 h), more than 100000 nM.

Take `NC(=O)c1cccc2c1nnn2[C@@H]1O[C@@H]2COP(=O)(O)O[C@H]3[C@@H](F)[C@H](n4cnc5c(N)ncnc54)O[C@@H]3COP(=O)(O)O[C@@H]1[C@@H]2O` [Example 1, 1-[(1R,6R,8R,9R,10R,15R,17R,18R)-8-(6-amino-9H-purin-9-yl)-9-fluoro-3,12,18-trihydroxy-3,12-dioxo-2,4,7,11,13,16-hexaoxa-3λ^5,12λ^5-diphosphatricyclo[13.2.1.0^6,10]octadecan-17-yl]-1H-1,2,3-benzotriazole-4-carboxamide]: the IC50 in experiment [1] is 3 nM; in experiment [3], 10 nM. The EC50 in experiment [2] (Homo sapiens, THP1-Dual, 20 h) worked out at 3200 nM; in experiment [4] (Homo sapiens, THP1-Dual, 20 h), 1500 nM.

As for `NC(=O)c1cccc2c1nnn2[C@@H]1O[C@@H]2COP(=O)(O)O[C@H]3[C@@H](F)[C@H](n4cnc5c(N)ncnc54)O[C@@H]3COP(=O)(O)O[C@@H]1[C@@H]2F` [Example 3, 1-[(1S,6R,8R,9R,10R,15R, 17R,18R)-8-(6-amino-9H-purin-9-yl)-9,18-difluoro-3,12-dihydroxy-3,12-dioxo-2,4,7,11,13,16-hexaoxa-3λ^5,12λ^5-diphosphatricyclo [13.2.1.0^6,^10]octadecan-17-yl]-1H-1,2,3-benzotriazole-4-carboxamide], the IC50 in experiment [1] worked out at 10 nM; in experiment [3] it was 30 nM. For the same compound, the EC50 in experiment [2] (Homo sapiens, THP1-Dual, 20 h) stood at 6700 nM; in experiment [4] (Homo sapiens, THP1-Dual, 20 h) it was 3500 nM.

Turning to `O=[N+]([O-])c1cccc2c1nnn2[C@@H]1O[C@@H]2COP(=O)(S)O[C@H]3[C@@H](F)[C@H](n4cnc5c4ncn4ccnc54)O[C@@H]3COP(=O)(S)O[C@@H]1[C@@H]2F` (stereo partly drawn) [Example 14-1, (1S,6R,8R,9R,10R,15R,17R,18R)-9,18-difluoro-8-{3H-imidazo[2,1-f]purin-3-yl}-17-(4-nitro-1H-1,2,3-benzotriazol-1-yl)-3,12-disulfanyl-2,4,7,11,13,16-hexaoxa-3λ^5,12λ^5-diphosphatricyclo[13.2.1.0^6,10]octadecane-3,12-dione], the IC50 was 10 nM in experiment [1] and 50 nM in experiment [3]. In addition, the EC50 turned out to be 11700 nM in experiment [2] (Homo sapiens, THP1-Dual, 20 h) and 3300 nM in experiment [4] (Homo sapiens, THP1-Dual, 20 h).

Consider `Nc1ncnc2c1ncn2[C@@H]1O[C@@H]2COP(=O)(S)O[C@@H]3[C@H](O)[C@@H](COP(=O)(S)O[C@H]2[C@H]1F)O[C@H]3n1nnc2c([N+](=O)[O-])cccc21` (single isomer, unassigned) [Example 7-4], for which the results for the IC50 in experiment [1] and in experiment [3] were 10 nM and 50 nM, respectively. Also, the EC50 worked out at 8000 nM in experiment [2] (20 hours) and 5500 nM in experiment [4] (20 hours).

In the case of `Nc1ncnc2c1ncn2[C@@H]1O[C@@H]2COP(=O)(S)O[C@@H]3[C@H](O)[C@@H](COP(=O)(S)O[C@H]2[C@H]1F)O[C@H]3n1nnc2c(C(F)(F)F)cccc21` (single isomer, unassigned) [Example 9-1], the IC50 in experiment [1] was found to be 4 nM; in experiment [3] it was 20 nM. In addition, the EC50 in experiment [2] (20 hours) was 2200 nM; in experiment [4] (20 hours), 800 nM.

For the compound `Nc1ncnc2c1ncn2[C@@H]1O[C@@H]2COP(=O)(S)O[C@@H]3[C@H](F)[C@@H](COP(=O)(S)O[C@H]2[C@H]1F)O[C@H]3n1nnc2c(N)cccc21` (single isomer, unassigned) [Example 13-1], the IC50 in experiment [1] is 10 nM; in experiment [3] it was 70 nM. The EC50 was found to be 4900 nM in experiment [2] (20 hours) and 1200 nM in experiment [4] (20 hours).

On to `NC(=O)c1cccc2c1nnn2[C@@H]1O[C@@H]2COP(=O)(S)O[C@H]3[C@@H](F)[C@H](n4cnc5c(N)ncnc54)O[C@@H]3COP(=O)(S)O[C@@H]1[C@@H]2O` (single isomer, unassigned) [Example 8-2], for which the IC50 in experiment [1] and in experiment [3] was 10 nM each time. In addition, the EC50 stood at 7600 nM in experiment [2] (20 hours) and 5200 nM in experiment [4] (20 hours).

Take `Nc1ncnc2c1ncn2[C@@H]1O[C@@H]2COP(=O)(O)O[C@@H]3[C@H](O)[C@@H](COP(=O)(S)O[C@H]2[C@H]1O)O[C@H]3n1nnc2c([N+](=O)[O-])cccc21` (stereo partly drawn) [Example 18-1, (1R,6R,8R,9R,10S,15R,17R,18R)-8-(6-amino-9H-purin-9-yl)-3,9,18-trihydroxy-17-(4-nitro-1H-1,2,3-benzotriazol-1-yl)-12-sulfanyl-2,4,7,11,13,16-hexaoxa-3λ^5,12λ^5-diphosphatricyclo[13.2.1.0^6,10]octadecane-3,12-dione]: the IC50 in experiment [1] is 66900 nM; in experiment [3] it was more than 100000 nM. Besides, the EC50 was more than 100000 nM in experiment [2] (Homo sapiens, THP1-Dual, 20 h) and more than 100000 nM in experiment [4] (Homo sapiens, THP1-Dual, 20 h).

`NC(=O)c1cccc2c1nnn2[C@@H]1O[C@@H]2COP(=O)(S)O[C@H]3[C@@H](F)[C@H](n4cnc5c(N)ncnc54)O[C@@H]3COP(=O)(S)O[C@@H]1[C@@H]2O` (single isomer, unassigned) [Example 8-1]: the IC50 in experiment [1] and in experiment [3] was 10 nM each time. For the same compound, the concentration for a half-maximal effect (EC50) was found to be 2400 nM in experiment [2] (20 hours) and 1000 nM in experiment [4] (20 hours).

The values are drawn from patent US10947263B2, “Cyclic dinucleotides as anticancer agents” (BRISTOL-MYERS SQUIBB COMPANY, priority 2017, dated 2021).
